Experimental findings from patent publication US20250122192A1, “5-PYRIMIDINECARBOXAMIDE DERIVATIVES AND METHODS OF USING THE SAME” (Rgenta Therapeutics, Inc., priority 2021, published 2025) are described below.

Where only a bound is given, the exact number is not on record here.

For the first experiment, the system named is PMS1. Nature of the experiment: Mini-gene reporter assay-PMS1. The settings on record: Homo sapiens, HEK293, PMS1 mini-gene firefly luciferase reporter transiently transfected into HEK293 cells; read-out: PMS1 IC50. The format is cell-based. The gist of the method: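 Compound dilution series in duplicate added to transiently transfected HEK293 reporter cells, then incubated; EC50 from Levenberg-Marquardt fit of luminescence. The reporter joins the alternatively skipped exon, its neighbouring introns and exons to firefly luciferase, so induced inclusion gives more signal.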
For `CCOc1nc(N2CCC3CCC(C2)N3)ncc1C(=O)Nc1cc(F)c2nc(C)cn2c1` (stereo not shown) [Compound 167], the IC50 lay in the range of 1000 to 3000 nM.

Consider `CCOc1nc(N(CC)C2CCCNCC2)ncc1C(=O)Nc1cc(F)c2nc(C)cn2c1` (stereo not shown) [Compound 168], for which the IC50 is less than 500 nM.

`CCOc1nc(N2CCNCC(O)C2)ncc1C(=O)Nc1cc(F)c2nc(C)cn2c1` (stereo not shown) [Compound 171]: the IC50 lay in the range of 1000 to 3000 nM.

For `CCOc1nc(N(C)C2CCCNCC2)ncc1C(=O)Nc1cc(F)c2nc(C)cn2c1` (stereo not shown) [Compound 173], the IC50 was less than 500 nM.

As to `CCOc1nc(N2C3CCNCC2CC3)ncc1C(=O)Nc1cc(F)c2nc(C)cn2c1` (stereo not shown) [Compound 175], the half-inhibitory concentration (IC50) is more than 3000 nM.

For the compound `CCNC1CCCN(c2ncc(C(=O)Nc3cc(F)c4nc(C)cn4c3)c(OCC)n2)C1` (stereo not shown) [Compound 176], the IC50 fell in the range of 500 to 1000 nM.

With `CCOc1nc(N2CCCC(C3CCCN3)C2)ncc1C(=O)Nc1cc(F)c2nc(C)cn2c1` (stereo not shown) [Compound 180], the IC50 was less than 500 nM.

As for `CCOc1nc(N2CC[C@@H]3CNC[C@@H]3CC2)ncc1C(=O)Nc1cc(F)c2nc(C)cn2c1` [Compound 181], the IC50 lay within 1000 to 3000 nM.

Consider `CCOc1nc(N2CCC3(CC2)CNC3C(C)C)ncc1C(=O)Nc1cc(F)c2nc(C)cn2c1` (stereo not shown) [Compound 182], for which the IC50 fell in the range of 500 to 1000 nM.

Turning to `CCOc1nc(N2CCCC3(CCNC3)C2)ncc1C(=O)Nc1cc(F)c2nc(C)cn2c1` (stereo not shown) [Compound 183], the IC50 was more than 3000 nM.

For the compound `CCOc1nc(N2CCCC(C3CCCNC3)C2)ncc1C(=O)Nc1cc(F)c2nc(C)cn2c1` (stereo not shown) [Compound 184], the concentration for half-maximal inhibition (IC50) lay in the range of 500 to 1000 nM.

As to `CCOc1nc(N2CC3CCCC(C2)N3)ncc1C(=O)Nc1cc(F)c2nc(C)cn2c1` [Compound 185], the IC50 lay within 1000 to 3000 nM.

On to `CCOc1nc(N(C)[C@@H]2C[C@H]3CC[C@@H](C2)N3)ncc1C(=O)Nc1cc(F)c2nc(C)cn2c1` [Compound 186], for which the IC50 is less than 500 nM.

Take `CCOc1nc(N2CCCC2CNC)ncc1C(=O)Nc1cc(F)c2nc(C)cn2c1` (stereo not shown) [Compound 188]: the IC50 was in the range of 1000 to 3000 nM.

With `COCc1nc(N(C)CC2CNCCO2)ncc1C(=O)Nc1cc(F)c2nc(C)cn2c1` (stereo not shown) [Compound 189], the IC50 was more than 3000 nM.

Consider `CCOc1nc(N(C)C2CC3CCC(C2)N3)ncc1C(=O)Nc1cc(F)c2nc(C)cn2c1` (stereo not shown) [Compound 190], for which the IC50 was less than 500 nM.

With `CCOc1nc(N2CCNC(C)CC2)ncc1C(=O)Nc1cc(F)c2nc(C)cn2c1` (stereo not shown) [Compound 191], the IC50 is less than 500 nM.

As to `CCOc1nc(N2CCNC3CC32)ncc1C(=O)Nc1cc(F)c2nc(C)cn2c1` (stereo not shown) [Compound 192], the IC50 was in the range of 500 to 1000 nM.

Regarding `CCOc1nc(N2CCC[C@H]3CNC[C@H]32)ncc1C(=O)Nc1cc(F)c2nc(C)cn2c1` [Compound 193], the IC50 was in the range of 500 to 1000 nM.

With `CCOc1nc(N2CCCC(N3CCNCC3)C2)ncc1C(=O)Nc1cc(F)c2nc(C)cn2c1` (stereo not shown) [Compound 194], the IC50 was 500 to 1000 nM.

With `CCOc1nc(N2CCOC3(CCNC3)C2)ncc1C(=O)Nc1cc(F)c2nc(C)cn2c1` (stereo not shown) [Compound 195], the IC50 fell in the range of 1000 to 3000 nM.

Regarding `CCOc1nc(N2C[C@@H]3CCCN[C@@H]3C2)ncc1C(=O)Nc1cc(F)c2nc(C)cn2c1` [Compound 197], the 50% inhibitory concentration (IC50) was less than 500 nM.

Turning to `CCOc1nc(N(C)CC2CCCN2)ncc1C(=O)Nc1cc(F)c2nc(C)cn2c1` (stereo not shown) [Compound 200], the IC50 lay within 1000 to 3000 nM.

As for `CCOc1nc(N2CCC3CCNCC32)ncc1C(=O)Nc1cc(F)c2nc(C)cn2c1` (stereo not shown) [Compound 201], the IC50 is less than 500 nM.

Take `CCNC1CN(c2ncc(C(=O)Nc3cc(F)c4nc(C)cn4c3)c(OCC)n2)C1` [Compound 202]: the IC50 was in the range of 500 to 1000 nM.

On to `CCOc1nc(N2CCC(C3CCCN3)CC2)ncc1C(=O)Nc1cc(F)c2nc(C)cn2c1` (stereo not shown) [Compound 203], for which the IC50 is less than 500 nM.

For `CCOc1nc(N2CCC3(CC2)CNCCO3)ncc1C(=O)Nc1cc(F)c2nc(C)cn2c1` [Compound 204], the IC50 lay in the range of 500 to 1000 nM.

As for `CCOc1nc(N2CCNCCC2C)ncc1C(=O)Nc1cc(F)c2nc(C)cn2c1` (stereo not shown) [Compound 205], the half-maximal inhibitory concentration (IC50) is 500 to 1000 nM.

Turning to `CCOc1nc(N2CC3(CNC3)C2)ncc1C(=O)Nc1cc(F)c2nc(C)cn2c1` [Compound 206], the IC50 was less than 500 nM.

With `CCOc1nc(N2CCC3(CCNCC3)CC2)ncc1C(=O)Nc1cc(F)c2nc(C)cn2c1` [Compound 207], the IC50 was less than 500 nM.

For the compound `CCOc1nc(N2CCC3(CCCNC3)C2)ncc1C(=O)Nc1cc(F)c2nc(C)cn2c1` (stereo not shown) [Compound 208], the IC50 was less than 500 nM.

In the case of `CCOc1nc(N(C)CC2CCNC2)ncc1C(=O)Nc1cc(F)c2nc(C)cn2c1` (stereo not shown) [Compound 210], the IC50 was in the range of 500 to 1000 nM.

With `CCOc1nc(N2CCC(CNC)C2)ncc1C(=O)Nc1cc(F)c2nc(C)cn2c1` (stereo not shown) [Compound 211], the 50% inhibitory concentration (IC50) is less than 500 nM.

Turning to `CCOc1nc(N2CC3(CCNC3)C2)ncc1C(=O)Nc1cc(F)c2nc(C)cn2c1` [Compound 212], the IC50 is less than 500 nM.

In the case of `CCOc1nc(N2CCNC(C)C2C)ncc1C(=O)Nc1cc(F)c2nc(C)cn2c1` (stereo not shown) [Compound 213], the IC50 is less than 500 nM.

Regarding `CCNC1CCN(c2ncc(C(=O)Nc3cc(F)c4nc(C)cn4c3)c(OCC)n2)CC1` [Compound 214], the IC50 was less than 500 nM.

Take `CCOc1nc(N(CC)C2CCCNC2)ncc1C(=O)Nc1cc(F)c2nc(C)cn2c1` (stereo not shown) [Compound 215]: the IC50 lay in the range of 1000 to 3000 nM.

Regarding `CCOc1nc(N2CCC(CNC)CC2)ncc1C(=O)Nc1cc(F)c2nc(C)cn2c1` [Compound 216], the IC50 is less than 500 nM.

Consider `CCOc1nc(N(C)CC2CCCNC2)ncc1C(=O)Nc1cc(F)c2nc(C)cn2c1` (stereo not shown) [Compound 217], for which the IC50 fell in the range of 1000 to 3000 nM.

As for `CCOc1nc(N2CC(N3CCNCC3)C2)ncc1C(=O)Nc1cc(F)c2nc(C)cn2c1` [Compound 218], the IC50 was more than 3000 nM.

With `CCOc1nc(N2CCC3(CCNCC3)C2)ncc1C(=O)Nc1cc(F)c2nc(C)cn2c1` [Compound 219], the IC50 is less than 500 nM.

On to `CCOc1nc(N2CCC3(CNC3)C2)ncc1C(=O)Nc1cc(F)c2nc(C)cn2c1` [Compound 220], for which the IC50 was less than 500 nM.

Turning to `CCOc1nc(N2CCN(C3CNC3)CC2)ncc1C(=O)Nc1cc(F)c2nc(C)cn2c1` [Compound 221], the IC50 fell in the range of 1000 to 3000 nM.

`CCOc1nc(N2CCC(N3CCNCC3)CC2)ncc1C(=O)Nc1cc(F)c2nc(C)cn2c1` [Compound 222]: the IC50 lay in the range of 1000 to 3000 nM.

For `CCOc1nc(N2CCOC3(CCNCC3)C2)ncc1C(=O)Nc1cc(F)c2nc(C)cn2c1` [Compound 223], the IC50 is more than 3000 nM.

Turning to `CCOc1nc(N2CCN(C3CCNC3)CC2)ncc1C(=O)Nc1cc(F)c2nc(C)cn2c1` (stereo not shown) [Compound 224], the IC50 lay within 1000 to 3000 nM.

`CCOc1nc(N2CCC3(CCNC3)CC2)ncc1C(=O)Nc1cc(F)c2nc(C)cn2c1` [Compound 225]: the IC50 was less than 500 nM.

Take `CCOc1nc(N2CCN[C@@H](C(C)C)C2)ncc1C(=O)Nc1cc(F)c2nc(C)cn2c1` [Compound 226]: the IC50 is less than 500 nM.

In the case of `CCOc1nc(N2CCCC(CNC)C2)ncc1C(=O)Nc1cc(F)c2nc(C)cn2c1` (stereo not shown) [Compound 228], the IC50 lay in the range of 500 to 1000 nM.

For `CCOc1nc(N2CCC(NC)C2)ncc1C(=O)Nc1cc(F)c2nc(C)cn2c1` (stereo not shown) [Compound 229], the IC50 is less than 500 nM.

Turning to `CCOc1nc(N2CC(C)NCC2C)ncc1C(=O)Nc1cc(F)c2nc(C)cn2c1` (stereo not shown) [Compound 230], the IC50 is less than 500 nM.

Regarding `CCOc1nc(N2C[C@@H](C)N[C@@H](C)C2)ncc1C(=O)Nc1cc(F)c2nc(C)cn2c1` [Compound 231], the IC50 was less than 500 nM.

`CCOc1nc(N2CCCC(NC)C2)ncc1C(=O)Nc1cc(F)c2nc(C)cn2c1` (stereo not shown) [Compound 232]: the half-inhibitory concentration (IC50) lay within 500 to 1000 nM.

As to `CCOc1nc(N2C[C@@H]3C[C@H]2CN3)ncc1C(=O)Nc1cc(F)c2nc(C)cn2c1` [Compound 233], the IC50 lay within 500 to 1000 nM.

Take `CCOc1nc(N2CCC3(CCNC3)C2)ncc1C(=O)Nc1cc(F)c2nc(C)cn2c1` (stereo not shown) [Compound 234]: the IC50 was less than 500 nM.

As for `CCOc1nc(N2CCC3(CC2)CNC3)ncc1C(=O)Nc1cc(F)c2nc(C)cn2c1` [Compound 235], the IC50 is less than 500 nM.

Consider `CCOc1nc(N(C)CC2CCNCC2)ncc1C(=O)Nc1cc(F)c2nc(C)cn2c1` [Compound 237], for which the IC50 is more than 3000 nM.

Take `CCOc1nc(N(C)C2CCNC2)ncc1C(=O)Nc1cc(F)c2nc(C)cn2c1` (stereo not shown) [Compound 238]: the IC50 is less than 500 nM.

Consider `CCOc1nc(N2CC3(CCNCC3)C2)ncc1C(=O)Nc1cc(F)c2nc(C)cn2c1` [Compound 239], for which the IC50 was less than 500 nM.

For the compound `CCOc1nc(N2CCNCC2C)ncc1C(=O)Nc1cc(F)c2nc(C)cn2c1` (stereo not shown) [Compound 240], the IC50 was less than 500 nM.

For `CCOc1nc(N(C)C2CCNCC2)ncc1C(=O)Nc1cc(F)c2nc(C)cn2c1` [Compound 241], the concentration for half-maximal inhibition (IC50) was less than 500 nM.

For the compound `CCOc1nc(N2CC(NC)C2)ncc1C(=O)Nc1cc(F)c2nc(C)cn2c1` [Compound 242], the IC50 is less than 500 nM.

For the compound `CCOc1nc(N2CCNC(C)C2)ncc1C(=O)Nc1cc(F)c2nc(C)cn2c1` (stereo not shown) [Compound 243], the IC50 is less than 500 nM.

As to `CCOc1nc(N(C)C2CCCNC2)ncc1C(=O)Nc1cc(F)c2nc(C)cn2c1` (stereo not shown) [Compound 244], the IC50 is less than 500 nM.

As for `CCOc1nc(N2CC3(CC(NC)CO3)C2)ncc1C(=O)Nc1cc(F)c2nc(C)cn2c1` (stereo not shown) [Compound 246], the IC50 was less than 500 nM.

Turning to `CCNC1COC2(C1)CN(c1ncc(C(=O)Nc3cc(F)c4nc(C)cn4c3)c(OCC)n1)C2` (stereo not shown) [Compound 247], the IC50 was less than 500 nM.

Consider `CCOc1nc(N2CC3(CC(NC(C)C)CO3)C2)ncc1C(=O)Nc1cc(F)c2nc(C)cn2c1` (stereo not shown) [Compound 248], for which the IC50 was less than 500 nM.

Still in this experiment, the particulars now being: Homo sapiens; at 5 μM; PMS1 mini-gene firefly luciferase reporter in HEK293 cells; read-out: PMS1% Effect at 5 μM.
For the compound `CCOc1nc(N2CCCC3(CNCCO3)C2)ncc1C(=O)Nc1cc(F)c2nc(C)cn2c1` (stereo not shown) [Compound 172], the activation at 5 µM is less than 50%.

With `CCOc1nc(N2CCCC2C(=O)N2CCNCC2)ncc1C(=O)Nc1cc(F)c2nc(C)cn2c1` (stereo not shown) [Compound 196], the activation at 5 µM is less than 50%.

Take `CCOc1nc(N2CCNCC2C(C)C)ncc1C(=O)Nc1cc(F)c2nc(C)cn2c1` (stereo not shown) [Compound 227]: the activation at 5 µM is less than 50%.
